Experimental data as given in patent publication US20250313563A1, “GLYCOGEN SYNTHASE KINASE 3 INHIBITORS AND USES THEREOF” (The Broad Institute, Inc., priority 2022, published 2025).

Tests used:
[1] = target: NanoLuc-GSK3α (Homo sapiens (Human), UniProt P49840); assay: NanoBRET residence time, GSK3α; type: cell-based; details: inhibitor at 10× IC50, BRET every 5 min for 3 hours
[2] = target: GSK3α (Rattus norvegicus (Rat), UniProt P18265); assay: In vivo target engagement assay (chemoproteomics, kinobeads), GSK3α; details: P10 rat cortex
GSK3α, sequence (P18265 whole entry): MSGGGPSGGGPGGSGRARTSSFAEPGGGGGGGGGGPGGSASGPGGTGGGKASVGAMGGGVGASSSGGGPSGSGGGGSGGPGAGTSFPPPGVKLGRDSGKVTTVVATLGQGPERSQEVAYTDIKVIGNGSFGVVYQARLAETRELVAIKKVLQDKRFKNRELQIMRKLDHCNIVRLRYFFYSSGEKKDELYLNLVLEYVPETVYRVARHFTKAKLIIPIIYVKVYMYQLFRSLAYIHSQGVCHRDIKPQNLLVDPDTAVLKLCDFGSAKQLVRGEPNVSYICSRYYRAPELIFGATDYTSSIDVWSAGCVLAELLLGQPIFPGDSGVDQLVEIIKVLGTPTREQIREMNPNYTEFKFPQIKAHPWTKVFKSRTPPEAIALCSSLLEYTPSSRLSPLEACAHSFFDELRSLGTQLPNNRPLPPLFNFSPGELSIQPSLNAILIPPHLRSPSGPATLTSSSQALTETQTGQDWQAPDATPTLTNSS
Protocol: (§1) Chemoproteomics competition was used to evaluate inhibitor selectivity and target engagement in vivo. Frozen cortexes were prepared for homogenization with 1.2 mL of Lysis Buffer (50 mM Tris-HCl, 0.8% NP-40 ((octylphenoxy poly(ethyleneoxy) ethanol)), 5% glycerol, 150 mM NaCl, 1.5 mM MgCl2, 25 mM NaF, 1 mM sodium vanadate, 1 mM DTT, pH 7.5 and supplemented with protease inhibitors). Tissues were homogenized in FastPrep-24 5G instrument at maximum oscillations for 20 seconds. The resulting brain homogenate was clarified by centrifugation for 1 h at 145 000 g, 4° C. The protein concentration of the supernatant was determined by BCA assay and each sample was diluted to final concentration of 5 mg/mL with lysis buffer. […] The dry peptide mixture was reconstituted in 15 μL of 0.1% trifluoro acetic acid and analyzed on ID nanoLC-MS/MS platform using a standardized 140 min method. Peptides were separated on an Easy-Spray column (75 μm×50 cm, PepMAP C18, 1.9 μm) at 250 nL/min, analyzed on a QExactive HF mass spectrometer at data dependent acquisition (DDA) mode with MS1 at 60,000 and MS2 at 15,000 resolution, respectively. […]
(§2) To measure direct target engagement of the compound for both GSK3α and GSK3β competitive chemoproteomics methodology was used. […] Enriched proteins were analyzed by liquid chromatography coupled with tandem mass spectrometry. […]

[3] = target: GSK3β (Rattus norvegicus (Rat), UniProt P18266); assay: In vivo target engagement assay (chemoproteomics, kinobeads), GSK3β; details: P10 rat cortex
GSK3β, sequence (P18266 whole entry): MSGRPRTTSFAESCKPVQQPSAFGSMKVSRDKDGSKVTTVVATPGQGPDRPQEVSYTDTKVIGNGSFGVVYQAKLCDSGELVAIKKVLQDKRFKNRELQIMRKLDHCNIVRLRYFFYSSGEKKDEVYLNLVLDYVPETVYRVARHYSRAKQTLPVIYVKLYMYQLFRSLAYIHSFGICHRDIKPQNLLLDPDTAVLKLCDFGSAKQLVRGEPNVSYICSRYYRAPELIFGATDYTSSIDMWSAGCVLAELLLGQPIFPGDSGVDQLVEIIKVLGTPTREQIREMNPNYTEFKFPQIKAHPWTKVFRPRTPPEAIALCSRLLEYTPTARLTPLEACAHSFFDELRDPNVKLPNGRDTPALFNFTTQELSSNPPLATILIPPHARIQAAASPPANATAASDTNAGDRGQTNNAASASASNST
Protocol: as §1, §2

[4] = three hours after dosing (Cmax, 60 mg/kg)

NanoLuc-GSK3α, sequence (P49840 whole entry): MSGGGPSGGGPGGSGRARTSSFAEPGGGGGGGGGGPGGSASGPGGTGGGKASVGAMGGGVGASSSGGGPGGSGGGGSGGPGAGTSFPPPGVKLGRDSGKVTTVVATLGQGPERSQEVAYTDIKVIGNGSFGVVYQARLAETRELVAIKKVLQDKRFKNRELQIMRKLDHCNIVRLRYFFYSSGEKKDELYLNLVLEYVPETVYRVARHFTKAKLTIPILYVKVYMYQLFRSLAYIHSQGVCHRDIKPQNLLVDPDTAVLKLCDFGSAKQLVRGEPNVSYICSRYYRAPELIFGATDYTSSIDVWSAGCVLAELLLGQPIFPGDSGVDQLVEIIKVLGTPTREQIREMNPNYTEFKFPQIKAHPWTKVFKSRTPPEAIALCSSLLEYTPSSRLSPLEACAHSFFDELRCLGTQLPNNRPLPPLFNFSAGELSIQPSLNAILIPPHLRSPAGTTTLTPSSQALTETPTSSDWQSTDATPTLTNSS

Question: How did the “residence time at GSK3α” value [1] turn out when `CCC1(c2cccc(C(F)(F)F)c2)C2=C(Nc3n[nH]cc31)C(F)C(C)(C)CC2=O` (single isomer, unassigned) [Compound 837646, 4-ethyl-8-fluoro-7,7-dimethyl-4-(3-(trifluoromethyl)phenyl)-2,4,6,7,8,9-hexahydro-5H-pyrazolo[3,4-b]quinolin-5-one] was run?
Answer: no difference in the residence time

Question: What about the “target engagement at GSK3α, 24 hr” value ([2]; 24 hr, both 60 mg/kg and 20 mg/kg) of the same compound?
Answer: ~50%

Question: What about the “target engagement for GSK3α, 3 hours” value [2, 4] of the same compound?
Answer: over 90%

Question: What about the “binding to GSK3β, 24 hr” value ([3]; 24 hr) of the same compound?
Answer: no significant binding detected

Question: And the “target engagement for GSK3β, 3 hours” value [3, 4]?
Answer: 40%
